We go through 2 compounds from patent US11597708B2, “Inhibitors of heat shock factors and uses thereof” (HSF Pharmaceuticals SA, priority 2016, dated 2023).

One data set has as its target T1, HSE DNA-binding activity (Homo sapiens, UniProt Q00613).
T1 construct: functionally linked to an hsp70b promoter and therefore controlled by endogenous HSF1; endogenous in cells; host or cells: HeLa cells / HeLa-derived cell line Z74
T1 sequence (Q00613 1-529): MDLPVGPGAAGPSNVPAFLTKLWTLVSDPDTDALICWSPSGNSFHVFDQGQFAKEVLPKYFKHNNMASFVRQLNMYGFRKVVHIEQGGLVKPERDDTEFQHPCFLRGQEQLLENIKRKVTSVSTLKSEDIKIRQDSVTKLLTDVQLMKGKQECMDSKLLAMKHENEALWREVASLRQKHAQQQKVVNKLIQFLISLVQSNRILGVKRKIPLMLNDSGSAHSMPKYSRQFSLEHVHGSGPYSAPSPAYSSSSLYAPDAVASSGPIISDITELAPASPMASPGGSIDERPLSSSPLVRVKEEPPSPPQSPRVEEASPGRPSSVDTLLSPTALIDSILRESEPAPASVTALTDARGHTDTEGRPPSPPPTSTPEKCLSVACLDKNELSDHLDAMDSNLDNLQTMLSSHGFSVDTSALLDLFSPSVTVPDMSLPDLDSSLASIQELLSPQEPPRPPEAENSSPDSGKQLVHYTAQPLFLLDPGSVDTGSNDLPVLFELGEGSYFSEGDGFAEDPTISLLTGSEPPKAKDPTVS
In words: EMSA using extracts of heat-treated HeLa cells, in the presence of IHSF. Format: biochemical. As to conditions: extracts of HeLa cells heat-treated at 43° C. for 30 min; concentrations as high as about 0.5 mM. The procedure: Electrophoretic mobility shift assays (EMSA) using a radiolabeled HSE DNA probe were carried out to assess HSF1 DNA-binding activity in extracts of heat-treated (43° C./30 min) HeLa cells that had been exposed to different concentrations of compounds 058 or 115 (FIG. 3A, top panels). […] HSF1 degradation correlated well with the observed decrease in DNA-binding activity. Therefore, HSF1 degradation provides a sufficient explanation for the reduced HSE DNA-binding activity in cells treated with IHSF 058. […] EMSA were also carried out using extracts of HeLa cells that had been heat-treated at 43° C. for 30 min.

For data set [1], the system named is hsp70b promoter-driven fluc gene. In words: Corroborating experiment in a cell line containing an hsp70b promoter-driven fluc gene. Format: cell-based. The following applies: data not shown. The procedure:
The compounds of the afore-mentioned biased sublibrary were screened in cell line Z74 at 12.5 and 25 μM concentrations. Typically, Z74 cultures in 96-well plates were exposed to compound or vehicle for 2 h, heat-treated at 43.0° C. for 30 min, and incubated further for 6 h at 37° C. to allow for accumulation of the luciferases. RLuc and FLuc activities were determined, typically using the Dual-Glo® Luciferase Assay System (Promega Corp., Madison, Wis.), and reading luciferase light counts in a Wallac Microbeta Trilux-1450 Luminometer (PerkinElmer, Waltham, Mass.). IHSF 001 was one of two library compounds that inhibited RLuc expression but not FLuc expression in heat-treated Z74 cells (Table 1; FIG. 2A). Therefore, IHSF 001 is an inhibitor of HSF1 function that specifically acts through the HSF1 DNA-binding domain. […] A corroborating experiment utilized a cell line containing an hsp70b promoter-driven fluc gene. […] IHSF 001 is (E)-ethyl 4-oxo-4-(thiazol-2-ylamino)but-2-enoate. The compound can be obtained from commercial sources (e.g., AKE-PB-90340538, Akos).

The test system of data set [2] is multiple myeloma MM.1S cells. In words: Analysis of mechanism of cell death in MM.1S cells. Format: cell-based, human. The following applies: in contrast to HeLa cells (non-apoptotic mechanism).
A short description of data set [3]: Dissolution in aqueous Kleptose HPB stock solution. Format: physicochemical. The following applies: 85 mg in 8.5 ml of 357 mg/ml Kleptose HPB stock solution, overnight, slow agitation, room temperature. The procedure:
1. Prepare 15 ml of a 357 mg/ml stock solution of Kleptose HPB (Roquette Pharma) in water (of which the amount not used under 2 is reserved for vehicle controls).
2. Dissolve 85 mg of compound 0115 in 8.5 ml of Kleptose stock solution by incubating the solution overnight with slow agitation (at room temperature). Over 90% of the drug substance will be dissolved after this incubation.

The next data set deals with PC-3 tumor xenograft. In words: Human prostate cancer PC-3 xenograft model in athymic mice. Format: in vivo. As to conditions: for tumor growth: period of daily administration (7 days). The protocol: Prostate cancer cell line PC-3 was obtained from ATTC and grown in tissue culture under standard conditions. Groups (8 animals) of athymic mice (6-7 weeks old, male, obtained from Harlan) were inoculated subcutaneously on the right flank with 5×10^6 PC-3 cells. Cells were administered as a 1:1 mixture of cells in medium and Matrigel. Treatment was initiated when tumor size reached about 200 mg, at which time the mice were randomized. Of the various groups in the experiment, one group received a daily intravenous dose (via the tail vein) of 2 mg IHSF 115 in an aqueous solution of Kleptose HPB (see Example 2.1) for 7 days, followed by additional dosing with 2 mg IHSF 115 every other day. Another group received a daily dose of 0.8 mg IHSF 115 in an aqueous solution of Kleptose HPB (see Example 2.1) for 7 days, followed by additional dosing with 0.8 mg IHSF 115 every other day. A control group was subjected to same regimen, administering vehicle (Kleptose HPB solution) only. Tumor size and weight were assessed periodically and recorded. Tumor size was estimated using calipers. Calculation: tumor weight (mg)=(a×b^2/2) where ‘b’ is the smallest diameter and ‘a’ is the largest diameter. […] Loss of weight for the period was less than 4%.

As to `CCOC(=O)/C=C/C(=O)Nc1nccs1` [IHSF 001, (E)-ethyl 4-oxo-4-(thiazol-2-ylamino)but-2-enoate], the “HSE DNA-binding activity (EMSA) in the presence of IHSF” value on HSE DNA-binding activity is “no reduction”. Moreover, the “FLuc expression in hsp70b promoter-driven fluc line” value in data set [1] is given as “inhibit FLuc expression”.

For the compound `CN(C(=O)/C=C/C1=NCCCO1)c1ncc(-c2cccnc2)s1` [IHSF 115, (E)-3-(5,6-Dihydro-4H-[1,3]oxazin-2-yl)-N-methyl-N-(5-pyridin-3-yl-thiazol-2-yl)-acrylamide], in data set [2], the “mechanism of cell death of MM.1S cells” value is “prominent apoptotic component”. In data set [3], the drug substance dissolved entry is listed as “Over 90%”. The tumor growth entry in the data set on PC-3 tumor xenograft (0.8 mg daily dose in aqueous Kleptose HPB) is “smaller effect”; in the data set on PC-3 tumor xenograft (2 mg daily intravenous in aqueous Kleptose HPB) it was “substantial (and statistically significant) reduction in tumor growth”. For the same compound, the toxicity result in the data set on PC-3 tumor xenograft (athymic mice, intravenous via the tail vein) is given as “No toxicity was observed, except for some local swelling in the inoculation region”. Further, the “Loss of weight for the period” value in the data set with PC-3 tumor xenograft (period of daily administration) is given as “less than 4%”.
